According to PubChem BioAssay (NCI):
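GI50: concentration for 50% inhibition of growth. TGI: total growth inhibition.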

Legend:
Experiment in all cases: NCI-60 cell line screen, 384-well format
786-0 renal = system: 786-0 renal
A498 renal = system: A498 renal
A549 NSCLC = system: A549 NSCLC
ACHN renal = system: ACHN renal
BT-549 breast = system: BT-549 breast
CAKI-1 renal = system: CAKI-1 renal
CCRF-CEM leukemia = system: CCRF-CEM leukemia
COLO 205 colon = system: COLO 205 colon
DU-145 prostate = system: DU-145 prostate
EKVX NSCLC = system: EKVX NSCLC
HCC-2998 colon = system: HCC-2998 colon
HCT-116 colon = system: HCT-116 colon
HCT-15 colon = system: HCT-15 colon
HL-60(TB) leukemia = system: HL-60(TB) leukemia
HOP-62 NSCLC = system: HOP-62 NSCLC
HOP-92 NSCLC = system: HOP-92 NSCLC
HS 578T breast = system: HS 578T breast
HT29 colon = system: HT29 colon
IGROV1 ovarian = system: IGROV1 ovarian
K-562 leukemia = system: K-562 leukemia
KM12 colon = system: KM12 colon
LOX IMVI melanoma = system: LOX IMVI melanoma
M14 melanoma = system: M14 melanoma
MALME-3M melanoma = system: MALME-3M melanoma
MCF7 breast = system: MCF7 breast
MDA-MB-231 breast = system: MDA-MB-231 breast
MDA-MB-435 melanoma = system: MDA-MB-435 melanoma
MDA-MB-468 breast = system: MDA-MB-468 breast
MOLT-4 leukemia = system: MOLT-4 leukemia
NCI-H226 lung = system: NCI-H226 lung

Cn1ncnc1[C@H]1c2n[nH]c(=O)c3cc(F)cc(c23)N[C@@H]1c1ccc(F)cc1
GI50 ([…]-0 renal): > 73.7 µM
TGI (786-0 renal): > 100 µM
GI50 (A498 renal): 31.1 µM
TGI (A498 renal): > 100 µM
GI50 (A549 NSCLC): 7.83 µM
TGI (A549 NSCLC): > 100 µM
GI50 (ACHN renal): 17 µM
TGI (ACHN renal): > 100 µM
GI50 (BT-549 breast): 2.5 µM
TGI (BT-549 breast): > 61.4 µM
GI50 (CAKI-1 renal): 21 µM
TGI (CAKI-1 renal): > 100 µM
GI50 (CCRF-CEM leukemia): 0.256 µM
TGI (CCRF-CEM leukemia): 1.27 µM
GI50 (COLO 205 colon): 1.87 µM
TGI (COLO 205 colon): > 100 µM
GI50 (DU-145 prostate): 1.38 µM
TGI (DU-145 prostate): 30 µM
GI50 (EKVX NSCLC): > 78.7 µM
TGI (EKVX NSCLC): > 100 µM
GI50 (HCC-2998 colon): 40.3 µM
TGI (HCC-2998 colon): > 100 µM
GI50 (HCT-116 colon): 0.706 µM
TGI (HCT-116 colon): > 100 µM
GI50 (HCT-15 colon): > 43.7 µM
TGI (HCT-15 colon): > 100 µM
GI50 (HL-60(TB) leukemia): 0.625 µM
TGI (HL-60(TB) leukemia): 1.99 µM
GI50 (HOP-62 NSCLC): 0.228 µM
TGI (HOP-62 NSCLC): 8.8 µM
GI50 (HOP-92 NSCLC): 46.9 µM
TGI (HOP-92 NSCLC): > 100 µM
GI50 (HS 578T breast): 15.2 µM
TGI (HS 578T breast): > 100 µM
GI50 (HT29 colon): > 100 µM
TGI (HT29 colon): > 100 µM
GI50 (IGROV1 ovarian): > 33 µM
TGI (IGROV1 ovarian): > 100 µM
GI50 (K-562 leukemia): 30.7 µM
TGI (K-562 leukemia): > 100 µM
GI50 (KM12 colon): > 100 µM
TGI (KM12 colon): > 100 µM
GI50 (LOX IMVI melanoma): 2.07 µM
TGI (LOX IMVI melanoma): > 100 µM
GI50 (M14 melanoma): 2.25 µM
TGI (M14 melanoma): > 100 µM
GI50 (MALME-3M melanoma): > 64.6 µM
TGI (MALME-3M melanoma): > 100 µM
GI50 (MCF7 breast): 1.72 µM
TGI (MCF7 breast): > 100 µM
GI50 (MDA-MB-231 breast): > 100 µM
TGI (MDA-MB-231 breast): > 100 µM
GI50 (MDA-MB-435 melanoma): > 100 µM
TGI (MDA-MB-435 melanoma): > 100 µM
GI50 (MDA-MB-468 breast): 0.123 µM
TGI (MDA-MB-468 breast): 1.13 µM
GI50 (MOLT-4 leukemia): 0.0183 µM
TGI (MOLT-4 leukemia): 0.145 µM
GI50 (NCI-H226 lung): 22 µM
